Test results taken from patent US4062862A, “5-Benzyl-2-oxazolidone derivatives and a process for producing the same” (Nippon Chemiphar Co., Ltd., priority 1975, dated 1977).

Experiments:
[1] = tested on: carrageenan-induced edema in rats; test: Antiinflammatory effect on carrageenan-induced edema; type: in vivo, Wistar male rats; conditions: Table 6, 200 mg/kg oral
Experimental: […] One hour after the administration of the test compounds, the hind paw was given a subcutaneous injection of 0.05ml of 0.5% carrageenan saline solution, and volume of the hind paw was measured at 1, 2, 3, 4, 5 and 6 hours after the injection of carrageenan by a volume differential meter. Inhibitory percent was calculated based on the swelling in the control. Phenybutazone was used as active placebo.

mice [2] = test: Muscular relaxing effect, Righting Reflex Test (R.r), oral, mice; type: in vivo, dd Male mice; conditions: Mus musculus; Table 2; 500 mg/kg; oral; mice; read-out: Inhibition percent of the central muscular relaxing effect, R.r (Righting Reflex Test)
Experimental: (§1) dd Male mice weighing 18 to 22 g, one group consisting of 10 animals, were orally given the compounds (I) to (V) as indicated below suspended in 0.2% carboxymethylcellulose solution in a dose of 0.25ml/10g-body weight. Mephenesin was used as active placebo.

mice [3] = test: Muscular relaxing effect, Pinna Reflex Test (P.r), oral, mice; type: in vivo, dd Male mice; conditions: Mus musculus; Table 2; 500 mg/kg; oral; mice; read-out: Inhibition percent of the central muscular relaxing effect, P.r (Pinna Reflex Test)
Experimental: as §1
Pinna reflex was observed by using mandolin wire for 1/4 injection syringe.

mice [4] = test: Muscular relaxing effect, Inclined Plane Test (I.P), oral, mice; type: in vivo, dd Male mice; conditions: Mus musculus; Table 2; 500 mg/kg; oral; mice; read-out: Inhibition percent of the central muscular relaxing effect, I.P (Inclined Plane Test)
Experimental: as §1
Mice were placed on veneer inclined at an angle of 30° and on wire-netting inclined at an angle of 60° of which one division is 5 mm square, and mice sliding down were observed as positive, in comparison with normal behavior.

mice [5] = test: Muscular relaxing effect, Traction Test (T.T), oral, mice; type: in vivo, dd Male mice; conditions: Mus musculus; Table 2; 500 mg/kg; oral; mice; read-out: Inhibition percent of the central muscular relaxing effect, T.T (Traction Test)
Experimental: as §1

mice [6] = test: Muscular relaxing effect, Corneal Reflex Test (C.r), oral, mice; type: in vivo, dd Male mice; conditions: Mus musculus; Table 2; 500 mg/kg; oral; mice; read-out: Inhibition percent of the central muscular relaxing effect, C.r (Corneal Reflex Test)
Experimental: as §1
Corneal reflex was observed by using mandolin wire for 1/4 injection syringe.

mice [7] = test: Muscular relaxing effect, Rotarod Method (R.R), oral, mice; type: in vivo, dd Male mice; conditions: Mus musculus; Table 2; 500 mg/kg; oral; mice; read-out: Inhibition percent of the central muscular relaxing effect, R.R (Rotarod Method)
Experimental: as §1
Mice were placed on Rotar Load (made by Natsume Seisakusho Co., Ltd.) having a diameter of 3 cm rotating at a speed of 10 rpm and falling (occurring within 3 minutes) was observed.

pain threshold in mice = test: Analgetic effect, Pressure Test (pain threshold, tail pressure); type: in vivo, dd Male mice; conditions: 100 mg/kg oral; for Pain threshold, Mean ± SE, 30 min / Pain threshold, Mean ± SE, 60 min / Pain threshold, Mean ± SE, 90 min / Pain threshold, Mean ± SE, 120 min: *p <0.05, **p <0.01, ***p <0.001
Experimental: dd Male mice weighing 18 to 22 g (pain threshold ranging within 30 to 50 mmHg), one group consisting of 10 animals, were given orally the test compounds suspended in 0.2% carboxymethylcellulose solution in a dose of 100mg/kg-body weight. Pain threshold were measured at 30, 60, 90 and 120 minutes after the administration of the test compounds while pain reaction occurring by application of pressure on tails of animals was referred to as indication. Aminopyrine was used as active placebo.

`O=C1NCC(Cc2ccc(F)cc2)O1` (stereo not drawn) [Compound XI, 5-(p-fluorobenzyl)-2-oxazolidone] was tested, and the “Inhibitory per cent, carrageenan-induced edema, 1 hr” value (“Inhibitory per cent … 1 hr” for short) [1] was 38.3 per cent, the “Inhibitory per cent, carrageenan-induced edema, 2 hrs.” value (shortened to “Inhibitory per cent … 2 hrs.”) [1] was 47.5 per cent and the “Inhibitory per cent, carrageenan-induced edema, 3 hrs.” value (from here on “Inhibitory per cent … 3 hrs.”) [1] was 44.5 per cent. The “Inhibitory per cent, carrageenan-induced edema, 4 hrs.” value (“Inhibitory per cent … 4 hrs.” for short) [1] was 34.4 per cent, the “Inhibitory per cent, carrageenan-induced edema, 5 hrs.” value (“Inhibitory per cent … 5 hrs.” for short) [1] was 9.2 per cent and the “Inhibitory per cent, carrageenan-induced edema, 6 hrs.” value (“Inhibitory per cent … 6 hrs.” for short) [1] was 8.9 per cent. It also gave a responders at 500 mg/kg (mice [2]) of 10%, a responders at 500 mg/kg (mice [3]) of 60% and a responders at 500 mg/kg (mice [4]) of 80%. It also gave a responders at 500 mg/kg (mice [5]) of 90%, a responders at 500 mg/kg (mice [6]) of 0% and a responders at 500 mg/kg (mice [7]) of 100%.
In the case of `O=C1NCC(Cc2cccc(C(F)(F)F)c2)O1` (stereo not drawn) [IX, 5-(m-trifluoromethylbenzyl)-2-oxazolidone], the “Inhibitory per cent … 1 hr” value [1] is reported as 45.0 per cent, the “Inhibitory per cent … 2 hrs.” value [1] is reported as 49.4 per cent and the “Inhibitory per cent … 3 hrs.” value [1] is reported as 20.8 per cent. The “Inhibitory per cent … 4 hrs.” value [1] was 11.3 per cent, the “Inhibitory per cent … 5 hrs.” value [1] was 14.5 per cent and the “Inhibitory per cent … 6 hrs.” value [1] was 11.5 per cent. The responders at 500 mg/kg (mice [2]) was 0%, the responders at 500 mg/kg (mice [3]) was 60% and the responders at 500 mg/kg (mice [4]) was 60%. The responders at 500 mg/kg (mice [5]) was 60%, the responders at 500 mg/kg (mice [6]) was 0% and the responders at 500 mg/kg (mice [7]) was 90%.
`O=C1NCC(Cc2ccccc2C(F)(F)F)O1` (stereo not drawn) [VIII, 5-(o-trifluoromethylbenzyl)-2-oxazolidone] was tested, and the “Inhibitory per cent … 1 hr” value [1] was 21.7 per cent, the “Inhibitory per cent … 2 hrs.” value [1] was 49.7 per cent and the “Inhibitory per cent … 3 hrs.” value [1] was 27.4 per cent. For the same molecule, the “Inhibitory per cent … 4 hrs.” value [1] was 35.6 per cent, the “Inhibitory per cent … 5 hrs.” value [1] was 9.2 per cent and the “Inhibitory per cent … 6 hrs.” value [1] was 0.5 per cent. For the same molecule, the “Pain threshold Increase Ratio” value (pain threshold in mice) was 1.28, the “Pain threshold, Mean ± SE, 30 min” value (pain threshold in mice) was 62.0 ± 4.6 mmHg and the “Pain threshold, Mean ± SE, 60 min” value (pain threshold in mice) was 60.2 ± 3.0 mmHg. The “Pain threshold, Mean ± SE, 90 min” value (pain threshold in mice) was 57.5 ± 3.2 mmHg, the “Pain threshold, Mean ± SE, 120 min” value (pain threshold in mice) was 52.9 ± 2.0 mmHg and the responders at 500 mg/kg (mice [2]) was 10%. The responders at 500 mg/kg (mice [3]) was 10%, the responders at 500 mg/kg (mice [4]) was 40% and the responders at 500 mg/kg (mice [5]) was 40%. It also gave a responders at 500 mg/kg (mice [6]) of 0% and a responders at 500 mg/kg (mice [7]) of 90%.
`O=C1NCC(Cc2ccccc2Br)O1` (stereo not drawn) [XII, 5-(o-bromobenzyl)-2-oxazolidone] was tested, and the “Pain threshold Increase Ratio” value (pain threshold in mice) was 1.24, the “Pain threshold, Mean ± SE, 30 min” value (pain threshold in mice) was 59.6 ± 3.4 mmHg and the “Pain threshold, Mean ± SE, 60 min” value (pain threshold in mice) was 59.4 ± 3.7 mmHg. The “Pain threshold, Mean ± SE, 90 min” value (pain threshold in mice) was 57.5 ± 1.9 mmHg, the “Pain threshold, Mean ± SE, 120 min” value (pain threshold in mice) was 52.7 ± 2.1 mmHg and the responders at 500 mg/kg (mice [2]) was 0%. It also gave a responders at 500 mg/kg (mice [3]) of 20%, a responders at 500 mg/kg (mice [4]) of 80% and a responders at 500 mg/kg (mice [5]) of 60%. The responders at 500 mg/kg (mice [6]) was 0% and the responders at 500 mg/kg (mice [7]) was 100%.
`O=C1NCC(Cc2ccccc2F)O1` (stereo not drawn) [XIII, 5-(o-fluorobenzyl)-2-oxazolidone] was tested, and the “Pain threshold Increase Ratio” value (pain threshold in mice) was 1.13, the “Pain threshold, Mean ± SE, 30 min” value (pain threshold in mice) was 52.1 ± 3.4 mmHg and the “Pain threshold, Mean ± SE, 60 min” value (pain threshold in mice) was 53.7 ± 2.6 mmHg. The “Pain threshold, Mean ± SE, 90 min” value (pain threshold in mice) was 50.4 ± 2.8 mmHg, the “Pain threshold, Mean ± SE, 120 min” value (pain threshold in mice) was 47.3 ± 1.8 mmHg and the responders at 500 mg/kg (mice [2]) was 20%. For the same molecule, the responders at 500 mg/kg (mice [3]) was 0%, the responders at 500 mg/kg (mice [4]) was 50% and the responders at 500 mg/kg (mice [5]) was 70%. It also gave a responders at 500 mg/kg (mice [6]) of 10% and a responders at 500 mg/kg (mice [7]) of 90%.
